Test results reported in patent US20170313746A1, “Peptides Useful For Treating Cancer” (priority 2014, published 2017).
“Also recorded” adds a separate entry of the source. Non-standard residues stand in square brackets, D forms with d. Residues, ends and D or L forms follow the SMILES beside them. Phe(4-guanidino) = N=C(N)Nc1ccc(C[C@H](N)C(=O)O)cc1; Abu(4-SO3H) = N[C@@H](CCS(=O)(=O)O)C(=O)O

Tests used:
[1] = tested on: Lactate Dehydrogenase A [LDHA]; test: LDH activity assay on lysates of treated NCI-H460 cells; conditions: higher concentrations, particularly later time point
Experimental: Therefore a BCA assay was conducted to estimate the total amount of protein present in each LDH assay lysate and this was used to normalise the enzyme activity data. As an indication of cell viability, an Alamar blue assay was also carried out at both timepoints, to serve as an additional point of reference.
1) NCI-H460 cells were grown in Ham's F12 media supplemented with 10% FBS. 2) Cells were harvested and seeded into 96-well plates at either 500 cells/well (for the 96 h timepoint) or 5000 cells/well for the 24 h timepoint. […] 6) At the end of the assay (24 or 96 h), Alamar blue 10% (v/v) was added to one set of plates, incubated for a further 4 hours, and fluorescent product detected using the BMG FLUOstar plate reader. […] 10) LDH activity was measured in the cleared lysates using an LDH activity kit (Abeam, ab102526). 11) After preparation of the LDH activity assay reactions, according to the manufacturer's instructions, absorbance at 450 nm was measured at the initial time to determine (A450)initial 12) Further absorbance readings were taken at 3 minute intervals for up to 15 minutes.
14) The change in measurement from Tinitial to Tfinal for each sample was calculated: 11A450=(A450)final−(A450)initial 15) The NADH standard curve was used to interpolate the 11A450 for each sample to determine the amount of NADH generated by the kinase assay between Tinitial and Tfinal (B). […]

NCI-H460 cells [2] = test: HILR-001 with or without 30 nM Olaparib, alamarBlue and CellTiter-Glo time course; type: cell-based, human
Experimental: Four concentrations of HILR-001 were tested in the presence or absence of 30 nM Olaparib; At each time point cell viability was measured by two assay readouts, alamarBlue® and CellTiter-Glo. Conversion of alamarBlue® to a fluorescent product serves as a readout of the metabolic activity of cells, whereas CellTiter-Glo is based on quantification of the ATP present.
1) NCI-H460 cells were grown in Ham's F12 media supplemented with 10% FBS. 2) Cells were harvested and seeded into 96-well plates at 500 cells/well. 3) HILR-001 was made up from a 10 mM stock solution and added directly to cells in doubling dilutions starting at 200 μM. Olaparib was made up from a 10 mM stock solution and added directly to cells at 30 nM. The total final DMSO concentration was 0.25%. 4) Cells were grown with compound for 24, 48, 72 or 96 hours at 37° C. 5% CO2 in a humidified atmosphere. 5) AlamarBlue® 10% (v/v) was then added and incubated for a further 4 hours, and fluorescent product detected using the BMG FLUOstar plate reader. 6) On duplicate plates the media was removed from the cells, CellTiter-Glo was diluted in PBS (1:10) and 100 μl added to the cells. 7) Plates were mixed on an orbital shaker for 2 minutes and incubated for a further 10 minutes at room temperature. Luminescent signal was then measured using the BMG FLUOstar plate reader.

[3] = tested on: NCI-H460 human non-small cell lung cancer cells; conditions: cited from earlier work
human cancer cell lines = conditions: cited from earlier work
[4] = tested on: NCI-H460 human non-small-cell lung cancer cells; test: Cell killing alone or in combination with 2-deoxyglucose, alamarBlue; type: cell-based; conditions: 3.125 mmol 2-DOG
Experimental: NCI-H460 human non-small-cell lung cancer cells were contacted with HILR-025 or HILR-D-07 alone or in combination with 3.125 mmol 2-DOG and cell survival was determined using AlamaBlue® cell viability reagent (Life Technologies, Inc.) in accordance with the manufacturer's instructions.

NCI-H460 cells [5] = test: NCI-H460 cell viability, alamarBlue (resazurin), 96 hours; type: cell-based, human; conditions: FIG. 13
Experimental: 1) NCI-H460 cells were grown in Ham's F12 media supplemented with 10% FBS. 2) Cells were harvested and seeded into 96-well plates at 500 cells/well. 3) Compounds were made up from stock solutions and added directly to cells in doubling dilutions starting at 200 μM. Final DMSO concentration was 0.2%. 4) Cells were grown with compound for 96 hours at 37° C. 5% CO2 in a humidified atmosphere. 5) A resazurin dye composition (AlamarBlue® cell viability reagent (Life Technologies, Inc.)) 10% (v/v) was then added and incubated for a further 4 hours, and fluorescent product detected using the BMG FLUOstar plate reader. 6) Media only background readings were subtracted before data were analysed using a 4-parameter logistic equation in GraphPad Prism. The IC50 of HILR-30 was determined as 6 μM.
1) NCI-H460 cells were grown in Ham's F12 media supplemented with 10% FBS. 2) Cells were harvested and seeded into 96-well plates at 500 cells/well. 3) Olaparib was made up from stock solutions and added directly to cells in semi-log dilutions starting at 30 μM. Final DMSO concentration was 0.3%. […] 5) AlamarBlue® cell viability reagent (Life Technologies, Inc.) 10% (v/v) was then added and incubated for a further 4 hours, and fluorescent product detected using the BMG FLUOstar plate reader. 6) Data were analysed using a 4-parameter logistic equation in GraphPad Prism.

[6] = 30 nM Olaparib with 50 μM HILR-001

Compound: CC(C)[C@@H]1NC(=O)[C@@H]2CCCN2C(=O)[C@H](CCCNC(=N)N)NC(=O)[C@@H]2CCCN2C(=O)CNC(=O)[C@H](CCCNC(=N)N)NC(=O)[C@@H]2CCCN2C(=O)[C@H](Cc2c[nH]c3ccccc23)NC(=O)[C@H](Cc2c[nH]c3ccccc23)NC(=O)[C@H](Cc2ccc(NC(=N)N)cc2)NC(=O)[C@H](Cc2ccc(NC(=N)N)cc2)NC(=O)[C@H](Cc2c[nH]c3ccccc23)NC(=O)[C@H](Cc2c[nH]c3ccccc23)NC(=O)[C@H](Cc2ccc(NC(=N)N)cc2)NC(=O)[C@H](Cc2ccc(NC(=N)N)cc2)NC(=O)[C@H](Cc2c[nH]c3ccccc23)NC(=O)[C@H](Cc2c[nH]c3ccccc23)NC1=O [HILR-030] (cyclo(PRGPRPVWW[Phe(4-guanidino)][Phe(4-guanidino)]WW[Phe(4-guanidino)][Phe(4-guanidino)]WW))
- cell death during LDH study [1]: Significant cell death

Compound: O=C(c1cc(Cc2n[nH]c(=O)c3ccccc23)ccc1F)N1CCN(C(=O)C2CC2)CC1 [Olaparib, 4-[3-(4-cyclopropanecarbonylpiperazine-1-carbonyl)-4-fluorobenzyl]-2H-phthalazin-1-one]
- ATP levels (CellTiter-Glo) (NCI-H460 cells [2]; [6]): partially restored; also recorded: partially reverses
- HILR-001-mediated cell death (alamarBlue) (NCI-H460 cells [2]; [6]): reversed
- ATP levels or cancer cell death (NCI-H460 cells [2]; 30 nM Olaparib with 100 μM and 200 μM HILR-001): did not affect

Compound: CC(C)C[C@@H]1NC(=O)[C@H](C)NC(=O)[C@H](C(C)C)NC(=O)[C@@H]2CCCN2C(=O)[C@H](CCCNC(=N)N)NC(=O)[C@@H]2CCCN2C(=O)CNC(=O)[C@H](CCCNC(=N)N)NC(=O)[C@@H]2CCCN2C(=O)[C@H](CC(C)C)NC(=O)[C@H](C)NC(=O)[C@H](CC(C)C)NC(=O)[C@H](CCCCN)NC(=O)[C@H](CC(C)C)NC(=O)[C@H](C)NC(=O)[C@H](CC(C)C)NC(=O)[C@H](CCCCN)NC1=O [HILR-001] (HELM PEPTIDE1{P.R.G.P.R.P.V.A.L.K.L.A.L.K.L.A.L}$PEPTIDE1,PEPTIDE1,1:R1-17:R2$$$V2.0)
- killing NCI-H460 human non-small cell lung cancer cells [3]: (“THR54”) ACTIVE

Compound: Cyc-[AAGPGGPRGPRPGGPGAA] (cyclic; cyclic peptide; (1)..(18) cyclic peptide) [SEQ ID NO: 9]
- activity of PRGPRP cyclic peptides with non-amphiphilic backbone (human cancer cell lines): INACTIVE

Compound: cyclo-[Pro-Hca-Gly-Pro-Hca-Pro-Val-Trp-Trp-Gpa-Gpa-Trp-Trp-Gpa-Gpa-Trp-Trp] (cyclo(P[Abu(4-SO3H)]GP[Abu(4-SO3H)]PVWW[Phe(4-guanidino)][Phe(4-guanidino)]WW[Phe(4-guanidino)][Phe(4-guanidino)]WW)) [HILR-D-07]
- cell killing ability with co-administration of 2-DOG [4]: enhanced

Compound: Cyc-[PRGPRPVKLALKLALKFP] (cyclic; cyclic peptide; (1)..(18) cyclic peptide) [THR53]
- killing NCI-H460 human non-small cell lung cancer cells [3]: (“THR5”) ACTIVE

Compound: CC(C)[C@@H]1NC(=O)[C@@H]2CCCN2C(=O)[C@H](CCCNC(=N)N)NC(=O)[C@@H]2CCCN2C(=O)CNC(=O)[C@H](CCCNC(=N)N)NC(=O)[C@@H]2CCCN2C(=O)[C@H](Cc2c[nH]c3ccccc23)NC(=O)[C@H](Cc2c[nH]c3ccccc23)NC(=O)[C@H](CCCNC(=N)N)NC(=O)[C@H](CCCNC(=N)N)NC(=O)[C@H](Cc2c[nH]c3ccccc23)NC(=O)[C@H](Cc2c[nH]c3ccccc23)NC(=O)[C@H](CCCNC(=N)N)NC(=O)[C@H](CCCNC(=N)N)NC(=O)[C@H](Cc2c[nH]c3ccccc23)NC(=O)[C@H](Cc2c[nH]c3ccccc23)NC1=O [HILR-025] (HELM PEPTIDE1{P.R.G.P.R.P.V.W.W.R.R.W.W.R.R.W.W}$PEPTIDE1,PEPTIDE1,1:R1-17:R2$$$V2.0)
- cell killing ability with co-administration of 2-DOG [4]: enhanced
- cell death during LDH study [1]: Significant cell death

Compound: Cyc-[AAAGGGPRGPRPGGGAAA] (cyclic; Cyclic peptide; (1)..(18) cyclic peptide) [SEQ ID NO: 6]
- activity of PRGPRP cyclic peptides with non-amphiphilic backbone (human cancer cell lines): INACTIVE

Compound: Cyc-[Gly-Asp-Glu-Val-NMeAsp-Sarc-Val-Trp-Trp-Arg-Arg-Trp-Trp-Arg-Arg-Trp-Trp] [HILR-D-01]
- cell-killing of NCI-H460 cells (NCI-H460 cells [5]): weak but significant dose-related cell-killing; also recorded: mild but significant killing

Compound: Cyc-[GGGGGGPRGPRPGGGGGG] (cyclic; cyclic peptide; (1)..(18) cyclic peptide) [SEQ ID NO: 7]
- activity of PRGPRP cyclic peptides with non-amphiphilic backbone (human cancer cell lines): INACTIVE

Compound: Cyc-[PRGPRPVKLALKLALKLAL] (cyclic; cyclic peptide; (1)..(19) cyclic peptide) [THR52]
- killing NCI-H460 human non-small cell lung cancer cells [3]: (“THR52”) INACTIVE
